We go through 63 molecules from a melting point compilation (Tetko et al.; mined from patent text by program, amines drawn as free bases though some values may be those of a salt).

As a reminder, the melting point is the temperature, or range, at which the solid turns liquid. In turn, `COc1ccc2c(c1)c(CO)nn2Cc1ccccc1` came in with a melting point of 97 to 98 °C.
On to `Nc1nc2ccc(C(F)(F)C(F)(F)F)cc2s1`, for which the melting point was 100 °C.
In turn, `N#Cc1ccc(N2CC(=O)NC2=O)c(-c2cccs2)c1` had a melting point of 189 °C.
Consider `Oc1ccc(-c2nnsc2-c2ccc(O)cc2)cc1`, for which the melting point was 221 °C.
Then `Cc1nc(-c2ccc(OC(C)C)c(C#N)c2)sc1C(=O)O`, with 220 to 222 °C; and `N#Cc1ncn(C2OC(COC(=O)c3ccccc3)C(OC(=O)c3ccccc3)C2OC(=O)c2ccccc2)c1C#N` (stereo not drawn), with 68 to 72 °C.
`CON=Cc1cc(-n2c(=O)cc(C(F)(F)F)n(C)c2=O)c(F)cc1Cl`: the melting point was in the range of 141 to 142 °C.
As to `Cc1cc(-n2cncn2)c2cccc(OCc3c(Cl)ccc(S(=O)(=O)N4CCC[C@H]4C(=O)NCCN(C)C)c3Cl)c2n1`, the melting point came out at 106 °C.
Molecule `Cc1ccccc1NC(=O)CI` displayed a melting point of 145 to 146 °C.
In the case of `O=C(CCl)N[C@H]1CC[C@H](O)CC1`, the melting point lay in the range of 149 to 151 °C.
The molecule `Cc1nccn1-c1cccc(Nc2ccc(-c3ccoc3)cc2N)c1` registered a melting point of 98 to 99 °C.
Under `N#Cc1ncn2c1NCC=C2c1cccc(C(F)(F)F)c1` stands 241 to 243 °C.
As to `COC(=O)/C=C(\c1ccccc1)c1ccc2c(c1)C(C)(C)OC(=O)N2`, the melting point fell in the range of 181 to 182 °C.
Under `CCOc1ccc(-c2nc(-c3ccc(N4CCOCC4)c([N+](=O)[O-])c3)cs2)cc1OCC` stands 119 to 120 °C; under `CC1(C)C=C(C(=O)NC2COC(C)(C)OCC2O)C(C)(C)N1` (stereo not drawn), 125 to 127 °C.
Under `Cn1nc(Oc2ccc([N+](=O)[O-])c([N+](=O)[O-])c2)c(Br)c1C(F)(F)F` stands 152 to 153 °C; under `O=C(c1ccccc1)C(O)O`, 85 to 85.5 °C.
Turning to `CS(=O)(=O)Nc1ccc(N)cn1`, the melting point is 199 to 202 °C.
`CCCC[C@H](CN(C=O)OCc1ccccc1)C(=O)N1CCC[C@H]1C(=O)Nc1ccc(F)cn1`: the melting point was 98 °C.
`COc1cc(CC#N)c(OC)c(C)c1C` returned a melting point of 98 to 99 °C.
For `CC(C)(C)c1cc(CCC(=O)Nc2ccc(S(=O)(=O)NCCBr)cc2)cc(C(C)(C)C)c1O`, the melting point fell in the range of 153 to 155 °C.
`CN(C)Cc1cc2ccc(-c3nnc(CSCCOc4ccccc4)o3)cc2n1S(C)(=O)=O` registered a melting point of 127 to 130 °C.
As for `CCNC(=O)c1ccc(N2CCN(Cc3cc4c(c(OC(F)F)c3)OC(C)C(=O)N4)CC2)cc1` (stereo not drawn), the melting point fell in the range of 219 to 224 °C.
Regarding `COc1ncc(-c2nn(C(C)c3oc4ccccc4c(=O)c3-c3cccc(F)c3)c3ncnc(N)c23)c(OC)n1` (stereo not drawn), the melting point fell in the range of 286 to 290 °C.
Molecule `Cc1cc(=O)[nH]c2nc(OCCCCN3CCN(c4cccc(Cl)c4Cl)CC3)ccc12` had a melting point of 181 to 182 °C.
Under `Cc1cccc(NC(=O)NCC(=O)N(CC(=O)N2CCCCC2C)c2ccccc2)c1` (racemic) stands 188 °C.
The molecule `CCN(CC)C(=O)c1cc(-c2ccccc2)ccc1-c1ccc(OC)cc1` returned a melting point of 139 to 141 °C.
Consider `CCCCCC1CN(C(=O)c2cc(OC)c(OC)c(OC)c2)CCN1C(=O)c1cc(OC)c(OC)c(OC)c1` (stereo not drawn), for which the melting point lay within 139 to 140 °C.
Molecule `CCN(CC)c1cccc2nc3n(c12)CC(OC)CCN3c1ccc(Cl)cc1Cl` (stereo not drawn) had a melting point of 120 to 122 °C.
Under `COCCOc1c(F)c(Oc2ccc(S(C)(=O)=O)nc2)cc2cc(C3=NCC(CCO)S3)[nH]c12` (stereo not drawn) stands 160 to 161 °C.
Under `CCOC(=O)c1c2n(c3cc(F)c(F)cc3c1=O)CCCC2` stands 166 to 168 °C.
`Cn1nnnc1-c1nccn1Cc1ccccc1`: the melting point was 110 to 111 °C.
`COc1ccc2c(c1)CCC1CCNC(=O)C(CC(C)NC(C)C)=C21` (stereo not drawn) yielded a melting point of 118 to 126 °C.
Take `CNc1ccc2sc3ccccc3c(=O)c2c1`: the melting point lay within 172 to 175 °C.
In turn, `COC(=O)CCCc1cc2nc(Cl)ccc2n1S(=O)(=O)c1cccc(Br)c1` displayed a melting point of 109 °C.
With `C=Cc1cn(-c2c(Cl)cc(C(F)(F)F)cc2Cl)nc1C(F)(F)F`, the melting point was 95 to 98 °C.
As for `CC(=O)Nc1cccc(/C=C/C(=O)N2CC(CCl)c3c2cc(NC(=O)OCC2c4ccccc4-c4ccccc42)c2ccccc32)c1` (stereo not drawn), the melting point lay in the range of 208 to 209 °C.
Consider `CC(=O)C(=CC(=O)O)c1ccccc1`, for which the melting point was 70 °C.
Then `COC(C=CC=Cc1ccc(OC)cc1)=CC(=O)O`, with 187 °C; and `N#Cc1cnn2c1NCCC2c1cccc(F)c1` (stereo not drawn), with 146 to 148 °C.
In turn, `CCOC(=O)c1cc(Cl)c(-n2nc(CC)c(C#N)c2N)c(Cl)c1` returned a melting point of 173 to 175 °C.
Then `O=C(Nc1ccc([N+](=O)[O-])cc1O)Nc1cc(Cl)ccc1O`, with 193 to 194 °C; and `CC(=O)Nc1ccc(C=Nc2cc(Cl)c(N=CN(C)C)c(Cl)c2)cc1`, with 171 to 173 °C.
`Cc1ccc(F)cc1NC(=O)c1cc([N+](=O)[O-])ccc1NC(=O)CF` yielded a melting point of 217 to 219 °C.
The molecule `CCCCCCCCCCCCCCCCCCS(=O)c1cc2ccccc2c(N=Nc2ccc(OC)cc2)c1O` (stereo not drawn) registered a melting point of 108 to 110 °C.
Under `CC(C)(NC=O)c1ccc(C(F)(F)C(F)(F)c2ccccc2)cc1` stands 116 to 117 °C; under `COc1ccc(C2=Cc3ccc(OCc4ccccc4)cc3OC2O)cc1` (stereo not drawn), 138 to 139 °C; under `Cc1cccc(Br)c1C(=O)N[C@@H](Cc1ccc(-c2c(C)n(C)c(=O)n(C)c2=O)cc1)C(=O)O`, 240 to 242 °C.
Turning to `O=C(Nc1ccccc1S(=O)(=O)c1ccccc1)N[C@@H](Cc1ccc(NC(=O)c2ccc(Cl)nc2Cl)cc1)C(=O)O`, the melting point came out at 207 °C.
Molecule `CCC1c2nc[nH]c2CCN1C(=S)NC(C)C` (stereo not drawn) came in with a melting point of 215 °C.
Then `COc1cc(OC)nc(Oc2cccc3c2C(=O)OC3C)n1` (stereo not drawn), with 190 to 191 °C.
The molecule `C=CCN1CCC23CC(=O)CCC2C1Cc1cccc(OC)c13` (stereo not drawn) returned a melting point of 84 to 86 °C.
As for `Cc1cc2c(cc1C(F)(F)F)N(C(=O)Nc1cnc(OCc3ccccn3)c(C)c1)CC2`, the melting point was 188 to 189 °C.
On to `O=C1C(Cl)=C(c2ccccc2)C(=O)N1c1ccccc1`, for which the melting point lay in the range of 82 to 83 °C.
The molecule `Cn1nnc(-c2ccc3[nH]cc(C4=CCN(CCN5CCNC5=O)CC4)c3c2)n1` displayed a melting point of 249 to 252 °C.
The molecule `COc1ccc(-c2cc(=S)n(C)c(=O)[nH]2)cc1OC` came in with a melting point of 247 to 249 °C.
`CC(=O)Nc1ccc(S(=O)(=O)Nc2nnc(CO)s2)cc1` showed a melting point of 101 to 102 °C.
Regarding `CCOC(=O)c1cnn(-c2cccc(S(=O)(=O)N(C)C)n2)c1S(N)(=O)=O`, the melting point lay in the range of 102 to 104 °C.
The molecule `O=C(O)c1cn(Cc2ccc(OCc3ccccc3)cc2)nc1-c1ccccc1` had a melting point of 152 to 153 °C.
`O=C(CS(=O)(=O)c1ncc(Br)cn1)c1ccccc1`: the melting point is 95 °C.
As to `O=[N+]([O-])c1cc(-c2ccc(Cl)cc2)[nH]c1SC(F)(F)F`, the melting point is 185 to 193 °C.
Regarding `CN(C(=O)c1ccccc1)C(=O)c1nc(Cl)c(Cl)[nH]1`, the melting point came to 168 °C.
`COc1ccc(/C=C/c2ccncc2[N+](=O)[O-])cc1OC1CCCC1` showed a melting point of 114 to 116 °C.
